Measurements: article PMC11012124, “Synthesis of Novel Triazine-Based Chalcones and 8,9-dihydro-7H-pyrimido[4,5-b][1,4]diazepines as Potential Leads in the Search of Anticancer, Antibacterial and Antifungal Agents” (International Journal of Molecular Sciences, 2024)

Columns and labels:
60 cancer cell lines = experiment: NCI-60 one-dose screen (10 μM); assay type: cell-based; details: Homo sapiens; one dose of 10 μM, mean over 60 cancer cell lines; read-out: Mean Growth Percent (MGP)
Text: Additionally, the mean of the growth percentages (MGP) of each compound against all the 60 cancer cell lines is also reported, which is used as one of the selection criteria to continue with tests at five concentration doses.

HL-60(TB) = experiment: cells; details: Homo sapiens, HL-60, 48 h
MOLT-4 = experiment: cells; details: Homo sapiens, MOLT-4, 48 h
RPMI-8226 = experiment: cells; details: Homo sapiens, RPMI-8226, 48 h
A549/ATCC = experiment: cells; details: Homo sapiens, A549, 48 h
HOP-92 = experiment: cells; details: Homo sapiens, HOP-92, 48 h
NCI-H226 = experiment: cells; details: Homo sapiens, NCI-H226, 48 h
NCI-H23 = experiment: cells; details: Homo sapiens, NCI-H23, 48 h
NCI-H460 = experiment: cells; details: Homo sapiens, NCI-H460, 48 h
NCI-H522 = experiment: cells; details: Homo sapiens, NCI-H522, 48 h
COLO 205 = experiment: cells; details: Homo sapiens, COLO 205, 48 h
HCT-116 = experiment: cells; details: Homo sapiens, HCT-116, 48 h
HCT-15 = experiment: cells; details: Homo sapiens, HCT-15, 48 h
HT29 = experiment: cells; details: Homo sapiens, HT-29, 48 h
KM12 = experiment: cells; details: Homo sapiens, KM12, 48 h
SF-295 = experiment: cells; details: Homo sapiens, SF-295, 48 h
SF-539 = experiment: cells; details: Homo sapiens, SF-539, 48 h
SNB-75 = experiment: cells; details: Homo sapiens, SNB-75, 48 h
U251 = experiment: cells; details: Homo sapiens, U-251, 48 h
LOX IMVI = experiment: cells; details: Homo sapiens, 48 h
M14 = experiment: cells; details: Homo sapiens, M14, 48 h
SK-MEL-2 = experiment: cells; details: Homo sapiens, SK-MEL-2, 48 h
SK-MEL-5 = experiment: cells; details: Homo sapiens, SK-MEL-5, 48 h
UACC-257 = experiment: cells; details: Homo sapiens, UACC-257, 48 h
OVCAR-4 = experiment: cells; details: Homo sapiens, OVCAR-4, 48 h
OVCAR-5 = experiment: cells; details: Homo sapiens, OVCAR-5, 48 h
SK-OV-3 = experiment: cells; details: Homo sapiens, SK-OV-3, 48 h
786-0 = experiment: cells; details: Homo sapiens, 786-0, 48 h
A498 = experiment: cells; details: Homo sapiens, A498, 48 h
SN12C = experiment: cells; details: Homo sapiens, 48 h
TK-10 = experiment: cells; details: Homo sapiens, TK-10, 48 h
UO-31 = experiment: cells; details: Homo sapiens, UO-31, 48 h
DU-145 = experiment: cells; details: Homo sapiens, DU-145, 48 h
MCF7 = experiment: cells; details: Homo sapiens, MCF7, 48 h
MDA-MB-231/ATCC = experiment: cells; details: Homo sapiens, MDA-MB-231, 48 h
T-47D = experiment: cells; details: Homo sapiens, T47D, 48 h
MDA-MB-468 = experiment: cells; details: Homo sapiens, MDA-MB-468, 48 h

CN(C)c1nc(NCCNS(=O)(=O)c2ccc(C(=O)/C=C/c3ccc(Cl)cc3)cc2)nc(Nc2ccc(F)cc2)n1 [24e]
activity at 10 µM (60 cancer cell lines): -46.6% | GI50 (HL-60(TB)): 4.39 µM | CC50 (HL-60(TB); read-out: LC50): > 100 µM | GI50 (MOLT-4): 3.07 µM | CC50 (MOLT-4; read-out: LC50): > 100 µM | GI50 (RPMI-8226): 2.47 µM | CC50 (RPMI-8226; read-out: LC50): 7.11 µM | GI50 (A549/ATCC): 4.52 µM | CC50 (A549/ATCC; read-out: LC50): 17.4 µM | GI50 (HOP-92): 3.83 µM | CC50 (HOP-92; read-out: LC50): 14.7 µM | GI50 (NCI-H226): 6.14 µM | CC50 (NCI-H226; read-out: LC50): 24.3 µM | GI50 (NCI-H23): 10.7 µM | CC50 (NCI-H23; read-out: LC50): 23.4 µM | GI50 (NCI-H460): 3.38 µM | CC50 (NCI-H460; read-out: LC50): 13.8 µM | GI50 (NCI-H522): 7.1 µM | CC50 (NCI-H522; read-out: LC50): 22 µM | GI50 (COLO 205): 5.96 µM | CC50 (COLO 205; read-out: LC50): 18.7 µM | GI50 (HCT-116): 1.66 µM | CC50 (HCT-116; read-out: LC50): 3.11 µM | GI50 (HCT-15): 4.62 µM | CC50 (HCT-15; read-out: LC50): 16.9 µM | GI50 (HT29): 2.15 µM | CC50 (HT29; read-out: LC50): 5.72 µM | GI50 (KM12): 2.97 µM | CC50 (KM12; read-out: LC50): 9.1 µM | GI50 (SF-295): 6.11 µM | CC50 (SF-295; read-out: LC50): 19.8 µM | GI50 (SF-539): 10.1 µM | CC50 (SF-539; read-out: LC50, SF-539, 48 h): 22 µM | GI50 (SNB-75): 5.6 µM | CC50 (SNB-75; read-out: LC50): 25.7 µM | GI50 (U251; U251, 48 h): 5.25 µM | CC50 (U251; read-out: LC50): 18.6 µM | GI50 (LOX IMVI): 2.74 µM | CC50 (LOX IMVI; read-out: LC50, LOX IMVI, 48 h): 9.16 µM | GI50 (M14): 4.14 µM | CC50 (M14; read-out: LC50): 15.3 µM | GI50 (SK-MEL-2): 5.47 µM | CC50 (SK-MEL-2; read-out: LC50): 19.5 µM | GI50 (SK-MEL-5): 5.89 µM | CC50 (SK-MEL-5; read-out: LC50): 18.8 µM | GI50 (UACC-257): 8.36 µM | CC50 (UACC-257; read-out: LC50): 21.8 µM | GI50 (OVCAR-4): 5.92 µM | CC50 (OVCAR-4; read-out: LC50): 22 µM | GI50 (OVCAR-5): 10.7 µM | CC50 (OVCAR-5; read-out: LC50): 22.6 µM | GI50 (SK-OV-3): 11.5 µM | CC50 (SK-OV-3; read-out: LC50): 27.7 µM | GI50 (786-0): 7.28 µM | CC50 (786-0; read-out: LC50): 20.2 µM | GI50 (A498): 10.5 µM | CC50 (A498; read-out: LC50): 23.1 µM | GI50 (SN12C): 3.79 µM | CC50 (SN12C; read-out: LC50): 15.9 µM | GI50 (TK-10): 11.7 µM | CC50 (TK-10; read-out: LC50): 30.3 µM | GI50 (UO-31): 4 µM | CC50 (UO-31; read-out: LC50): 16.6 µM | GI50 (DU-145): 9.7 µM | CC50 (DU-145; read-out: LC50): 21.8 µM | GI50 (MCF7): 2.28 µM | CC50 (MCF7; read-out: LC50): 6.33 µM | GI50 (MDA-MB-231/ATCC): 4.72 µM | CC50 (MDA-MB-231/ATCC; read-out: LC50): 17.4 µM | GI50 (T-47D): 4.37 µM | CC50 (T-47D; read-out: LC50): 18 µM | GI50 (MDA-MB-468): 3.71 µM | CC50 (MDA-MB-468; read-out: LC50): 14.8 µM
